Data reported in patent publication US6110962A, “11-aryl-benzo[B]naphtho[2,3-D]furans and 11-aryl-benzo[B]naphtho[2,3-D]thiophenes useful in the treatment of insulin resistance and hyperglycemia” (American Home Products Corporation, priority 1999, dated 2000).
Structures can show the parent of a compound that is named as a salt. Where two headings read alike, the source gives them in different places.

How the values were obtained:
Human recombinant PTP1B = target: T1, Human recombinant PTP1B (Homo sapiens, UniProt P18031); type: biochemical; details: read-out: IC50
T1 construct: made in house
T1 sequence (P18031 1-435): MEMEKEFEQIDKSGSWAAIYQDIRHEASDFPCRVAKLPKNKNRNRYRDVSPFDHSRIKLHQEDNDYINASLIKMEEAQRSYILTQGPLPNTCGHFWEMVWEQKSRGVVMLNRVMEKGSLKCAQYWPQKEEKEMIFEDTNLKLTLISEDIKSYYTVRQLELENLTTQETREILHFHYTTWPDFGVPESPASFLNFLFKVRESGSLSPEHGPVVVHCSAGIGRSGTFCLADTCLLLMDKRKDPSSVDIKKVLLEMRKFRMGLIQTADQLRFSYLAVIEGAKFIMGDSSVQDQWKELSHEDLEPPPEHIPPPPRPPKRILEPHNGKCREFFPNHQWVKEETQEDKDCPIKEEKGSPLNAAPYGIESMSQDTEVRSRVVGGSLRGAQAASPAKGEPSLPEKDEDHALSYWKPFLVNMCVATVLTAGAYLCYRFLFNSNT

[1] = tested on: rat hepatic microsomal PTPases; details: PTPase activity, compound at 50 μM
diabetic (ob/ob) mice = assay: Blood glucose lowering activity in diabetic (ob/ob) mice; type: in vivo, mouse; details: ob/ob mice; for change in vivo at 25 mg/kg / change in vivo at 100 mg/kg / change in vivo at 10 mg/kg / change in vivo at 5 mg/kg: Mus musculus, po
Experimental: The blood glucose lowering activity of representative compounds of this invention were determined in an in vivo standard procedure using diabetic (ob/ob) mice. The procedures used and results obtained are briefly described below. The non-insulin dependent diabetic (NIDDM) syndrome can be typically characterizes by obesity, hyperglycemia, abnormal insulin secretion, hyperinsulinemia and insulin resistance. […] In each test procedure, mice [Male or female ob/ob (C57 B1/6J) and their lean litermates (ob+ or +/+, Jackson Laboratories) ages 2 to 5 months (10 to 65 g)] of a similar age were randomized according to body weight into 4 groups of 10 mice. The mice were housed 5 per cage and are maintained on normal rodent chow with water ad libitum. Mice received test compound daily by gavage (suspended in 0.5 ml of 0.5% methyl cellulose); dissolved in the drinking water; or admixed in the diet. […] The dose is calculated based on the fed weekly body weight and is expressed as active moiety. […] Control mice received vehicle only. On the morning of Day 4, 7 or 14 two drops of blood (approximetly 50 ul) were collected into sodium fluoride containing tubes either from the tail vein or after decapitation. For those studies in which the compound was administered daily by gavage the blood samples were collected two hours after compound administration. The plasma was isolated by centrifugation and the concentration of glucose is measured enzymatically on an Abbott V. P. Analyzer. […] Analysis of variance followed by Dunett's Comparison Test (one-tailed) are used to estimate the significant difference between the plasma glucose values from the control group and the individual compound treated groups (CMS SAS Release 5.18).

[2] = 96 h, dose 25 mg/Kg, plasma glucose Day 4, 7 or 14, read-out: % Change Glucose from Vehicle
[3] = dose 25 mg/Kg, read-out: % Change Insulin from Vehicle
[4] = 96 h, plasma glucose Day 4, 7 or 14, read-out: % Change Glucose from Vehicle
[5] = read-out: % Change Insulin from Vehicle

Row | Structure (SMILES) | IC50 (Human recombinant PTP1B) | % Change from Control [1] | change in vivo at 100 mg/kg (diabetic (ob/ob) mice; [4]) | change in vivo at 100 mg/kg (diabetic (ob/ob) mice; [5]) | further results
1 | O=C(O)C(Cc1ccc(F)cc1)Oc1c(Br)cc(-c2c3ccccc3c(Br)c3sc4ccccc4c23)cc1Br (stereo not shown) [Example 155, 2-[2,6-Dibromo-4-(6-bromo-benzo[b]naphtho[2,3-d]thiophen-11-yl)-phenoxy]-3-(4-fluoro-phenyl)-propionic acid] | 56 nM | -82.25% | – | – | change in vivo at 25 mg/kg (diabetic (ob/ob) mice; [2]): -28.9%; change in vivo at 25 mg/kg (diabetic (ob/ob) mice; [3]): -63.2%
2 | O=C(O)[C@@H](Cc1ccccc1)Oc1c(Br)cc(-c2c3c(c(Br)c4ccccc24)S(=O)(=O)c2ccccc2-3)cc1Br [Example 189] | 1390 nM | -89.32% | -46.8% | 11% | –
3 | O=C(O)[C@@H](CCN1C(=O)c2ccccc2C1=O)Oc1c(Br)cc(-c2c3ccccc3cc3sc4ccccc4c23)cc1Br [Example 146, (R)-2-(4-Benzo[b]naphtho[2,3-d]thiophen-11-yl-2,6-dibromo-phenoxy)-4-(1,3-dioxo-1 , 3-dihydro-isoindol-2-yl)-butyric acid] | 64 nM | -71.95% | -45.8% | -56.2% | –
4 | O=C(O)[C@@H](Cc1ccccc1)Oc1c(F)ccc(-c2c3ccccc3c(Br)c3sc4ccccc4c23)c1F [Example 203, (R)-2-[]3-(6-Bromo-benzo[b]naphtho[2,3-d]thiophen11-yl)-2.6-difluoro-phenoxyl-3-phenyl-propionic acid] | 402 nM | -86.47% | -16.1% | -91% | –
5 | O=C(O)COc1c(Br)cc(-c2c3ccccc3c(Br)c3oc4ccccc4c23)cc1Br [Example 215, [2,6-Dibromo-4-(6-bromo-benzo[b]naphtho[2,3-d]furan-11-yl)-phenoxy]-acetic acid] | 490 nM | -80.93% | -39.4% | -4.66% | –
6 | CC(C)c1cc(-c2c3ccccc3c(Br)c3sc4ccccc4c23)cc(C(C)C)c1OCC(=O)O [Example 89, [4-(6-Bromo-benzo[b]naphtho[2,3-d]thiophen-11-yl)-2,6-diisopropyl-phenoxy)-acetic acid] | 126 nM | -61.04% | – | – | change in vivo at 10 mg/kg (diabetic (ob/ob) mice; [4]): -24.9%
7 | O=C(O)[C@@H](Cc1ccccc1)Oc1c(Br)cc(-c2c3ccccc3c(Br)c3oc4ccccc4c23)cc1Br [Example 216, (R)-2-[2,6-Dibromo-4-(6-bromo-benzo[b]naphtho[2,3-d]furan-11-yl)-phenoxy]-3-phenyl-propionic acid] | 83 nM | -60.67% | – | – | change in vivo at 5 mg/kg (diabetic (ob/ob) mice; [4]): -14.8%; change in vivo at 10 mg/kg (diabetic (ob/ob) mice; [4]): -28.7%; change in vivo at 5 mg/kg (diabetic (ob/ob) mice; [5]): -55.9%; change in vivo at 10 mg/kg (diabetic (ob/ob) mice; [5]): -69.4%
8 | C[C@@H](Oc1c(Br)cc(-c2c3ccccc3c(Sc3ccccc3)c3sc4ccccc4c23)cc1Br)C(=O)O [Example 129, (R)-2-[2,6-Dibromo-4-(6-phenylsulfanyl-benzo[b]naphthor[2,3-d]thiophen-11-yl)-phenoxy]-propionic acid] | 46 nM | -59.03% | – | – | change in vivo at 25 mg/kg (diabetic (ob/ob) mice; [2]): -14.9%; change in vivo at 25 mg/kg (diabetic (ob/ob) mice; [3]): -54.6%
9 | N#Cc1c2ccccc2c(-c2cc(Br)c(O[C@@H](Cc3ccccc3)C(=O)O)c(Br)c2)c2c1sc1ccccc12 [Example 115, (S)-2-[2,6-Dibromo-4-(6-cyano-benzo[b]naphtho[2,3-d]thiophen-11-yl)-phenoxy]-3-phenyl-propionic acid] | 279 nM | -55.43% | -33.9% | 52% | –
10 | O=C(O)C(Cc1c[nH]c2ccccc12)Oc1c(Br)cc(-c2c3ccccc3c(Br)c3sc4ccccc4c23)cc1Br (racemic) [Example 122, (R,S)-2-[2.6-Dibromo-4-(6-bromo-benzo[b]naphtho[2,3-d]thiophen-11-yl)-phenoxy]-3-(1 H-indol-3-yl)-propionic acid] | 36 nM | -85.46% | -28.1% | -37.4% | –

Continued, in another order:

Row | IC50 (Human recombinant PTP1B) | % Change from Control [1] | Structure (SMILES) | change in vivo at 100 mg/kg (diabetic (ob/ob) mice; [4]) | change in vivo at 100 mg/kg (diabetic (ob/ob) mice; [5]) | further results
11 | 62 nM | -76.45% | O=C(O)[C@H](Cc1ccccc1)Oc1c(Br)cc(-c2c3ccccc3c(Br)c3sc4ccccc4c23)cc1Br [Example 111, (S)-2-[2,6-Dibromo-4-(6-bromo-benzo[b]naphtho[2,3-d]thiophen-11-yl)-phenoxy]-3-phenyl-propionic acid] | -39.4% | -17.9% | –
12 | 76 nM | -70.95% | Brc1cc(-c2c3ccccc3c(Br)c3sc4ccccc4c23)cc(Br)c1O[C@H](Cc1ccccc1)c1nnn[nH]1 [Example 172, (R)-5-{1-[2,6-Dibromo-4-(6-bromo-benzo[b]naphtho[2,3-d]thiophen-11-yl)-phenoxy]-2-phenyl-ethyl}-1 H-tetrazole] | 5.62% | -52% | –
13 | 64 nM | -37.08% | O=C(O)[C@@H](Cc1ccccc1)Oc1c(Br)cc(-c2c3ccccc3c(Cl)c3sc4ccccc4c23)cc1Br [Example 127, (R)-2-{2,6-Dibromo-4-(6-chloro-benzo[b]naphtho[2,3-d]thiophen-11-yl)-phenoxy}-3-phenyl-propionic acid] | – | – | change in vivo at 25 mg/kg (diabetic (ob/ob) mice; [2]): -18.8%; change in vivo at 25 mg/kg (diabetic (ob/ob) mice; [3]): -76.5%
14 | 50 nM | -63.42% | O=C(O)[C@@H](Cc1ccccc1)Oc1c(Br)cc(-c2c3ccccc3c(I)c3sc4ccccc4c23)cc1Br [Example 136] | – | – | change in vivo at 25 mg/kg (diabetic (ob/ob) mice; [2]): -23.6%; change in vivo at 25 mg/kg (diabetic (ob/ob) mice; [3]): -52%
15 | 71 nM | – | O=C(O)[C@@H](Cc1ccccc1)Oc1c(Br)cc(-c2c3ccccc3c(Br)c3sc4ccccc4c23)cc1Br [Example 109, (R)-2-[2,6-Dibromo-4-(6-bromo-benzo[b]naphtho[2,3-d]thiophen-11-yl)-phenoxy]-3-phenyl-propionic acid, sodium salt] | – | – | % Change from Control ([1]; sodium salt, 50 µM): -66.67%; % Change Glucose from Vehicle (diabetic (ob/ob) mice; dose 25 mg/Kg, plasma glucose Day 4, 7 or 14, sodium salt, 25 mg/kg): -26.31%; % Change Insulin from Vehicle (diabetic (ob/ob) mice; dose 25 mg/Kg, sodium salt): -71.64%
